From the NIST ThermoML archive (doi:10.1016/j.fluid.2018.11.010) come the findings set out here.

The series can be described thus: wn = mass fraction of the nth substance listed. The note with it: 298.15 K, Wilhelmy plate method.

For `CC(=O)[O-].CCCCCCn1cc[n+](C)c1` [3-hexyl-1-methylimidazolium acetate] + O, the surface tension liquid-gas reads like this: (w1 = 7e-05) 66.55 mN/m; (w1 = 0.00069) 60.77 mN/m; (w1 = 0.01013) 51.97 mN/m; (w1 = 0.3005) 41 mN/m; (w1 = 1) 36 mN/m.

Broadly, the surface tension liquid-gas is the force per length acting along the surface.
